From US20110003382A1, “USE OF CORTICOSTERONE FOR INCREASING EGG ANTIBODY” (WISCONSIN ALUMNI RESEARCH FOUNDATION, priority 2009, published 2011)

Columns and labels:
[1] = tested on: broilers; settings: dietary CORT 30 mg/kg diet for 1 week; cited from earlier work
[2] = tested on: mice; settings: exogenous corticosterone; cited from earlier work
[3] = tested on: Single Comb White Leghorn hens; assay: Egg production (laying frequency); format: in vivo
Method: (§1) Measurement of body weight and egg production. […] Initial body weight of adult laying hens, 26- to 60-weeks of age, was reported when measured at the beginning of experiments. Data were expressed as a percentage of initial body weight (% initial BW) to determine effects of CORT on change in body weight. Eggs produced were recorded daily for each hen. Laying frequency (or egg production) of each hen during each 7 day period measured, was obtained by dividing the total number of eggs laid by 7.

[4] = tested on: Single Comb White Leghorn hens; assay: Anti-PLA2 antibody titer in serum of immunized hens by ELISA; format: in vivo; settings: weeks 2 to 3 after primary immunization
From the text: (§2) In all Examples, Single Comb White Leghorn hens (SCWL) used were transported as pullets (18- to 22-weeks of age) from S&R Farms (Whitewater, Wis.) to University of Wisconsin—Madison Poultry Research Laboratory. Hens were individually housed in cages with raised bottom floors for at least four weeks before being assigned to an Example, and were 26- to 60-weeks of age at the beginning of experiments. Hens were fed, ad libitum, a standard corn-soybean meal based laying hen diet formulated to meet nutritional requirements. Housing was maintained under an automated lighting schedule with 16:8-h light-dark cycle. All procedures involving animals were approved by Animal Care Committee at University of Wisconsin, Madison.
The antigen selected for comparing the antibody response of hens was a 13 kDa soluble protein antigen, phospholipase A2 (PLA2) purified from porcine pancreas (Novozyme, Bagsvaerd, Denmark; greater than 90% purity based on SDS-PAGE). PLA2 was used because of its commercial relevance, and its previous use as a model antigen for studying hen antibody response (Trott, et al., 2008, “Additions of killed whole cell bacteria preparations to Freund complete adjuvant alter laying hen antibody response to soluble protein antigen,” Poult. Sci., 87(5):912-917). […]
Anti-PLA2 antibody content of egg yolk and serum samples were measured by an ELISA (Trott, et al., 2008). […]

[5] = tested on: Single Comb White Leghorn hens; assay: Body weight change (% initial BW); format: in vivo
Method: as §1

[6] = after 1 day of CORT at 20 mg/kg diet in drinking water; cited from earlier work
[7] = tested on: laying hens; settings: cited from earlier work
[8] = tested on: Single Comb White Leghorn hens; assay: Peripheral blood mononuclear cell (PBMC) counts; format: in vivo
Method: Peripheral Blood Mononuclear Cell Counts. […] Whole blood (2-3 ml) was collected from wing vein into heparin-containing tubes (Becton Dickinson, Sparks, Md.). In 15-ml conical tubes, blood (2 ml) was layered on an equal volume (2 ml) of 1077 Histopaque (Sigma-Aldrich), and centrifuged at 400×g for 30 minutes at room temperature. Mononuclear cells were collected from the gradient interface, and re-suspended in PBS to the original blood volume (2 ml) or the sample. PBMCs were further diluted (1:16) in PBS, mixed with an equal volume of 0.4% trypan blue solution (Sigma-Aldrich), and counted, microscopically, with the aid of a hemacytometer.

[9] = tested on: chicken; settings: feeding CORT 20-80 mg/kg diet; cited from earlier work
[10] = tested on: Single Comb White Leghorn hens; assay: Anti-PLA2 antibody titer in egg yolk of immunized hens by ELISA; format: in vivo
From the text: as §2
The antigen selected for comparing the antibody response of hens was a 13 kDa soluble protein antigen, phospholipase A2 (PLA2) purified from porcine pancreas (Novozyme, Bagsvaerd, Denmark; greater than 90% purity based on SDS-PAGE). PLA2 was used because of its commercial relevance, and its previous use as a model antigen for studying hen antibody response (Trott, et al., 2008, “Additions of killed whole cell bacteria preparations to Freund complete adjuvant alter laying hen antibody response to soluble protein antigen,” Poult. Sci., 87(5):912-917). Hens were immunized according to methods described by Trott, et al. (2008). The primary immunization for each hen was a water-in-oil emulsion (50:50) that consisted of 3 mg PLA2 dissolved in 0.5 mL phosphate buffer saline (PBS), and emulsified with 0.5 mL of Freund Complete Adjuvant (FCA; DIFCO, Sparks, Md.). Seven days after the primary immunization, each hen received a booster injection containing 3 mg PLA2 dissolved in 0.5 mL PBS and emulsified with Freund Incomplete Adjuvant (FIA; DIFCO). All injections (primary and booster) were administered i.m. into each breast and thigh of hen (1 ml/hen at 0.25 mL/injection site). In all experiments, immunization of hens (primary and booster) occurred at approximately 10 A.M. to eliminate the potential confounding effect of endogenous CORT levels fluctuating due to circadian rhythms.
Based on previous experimentation (Trott et al., 2008; Schade et al., 2001, “Chicken egg yolk antibodies: Production and application,” Springer, Heidelberg, Germany) week three after primary immunization represented peak antibody titer in egg yolk; therefore, eggs were collected once per week beginning on week three and continuing until week eight or ten for repeated testing of anti-PLA2 antibody content using an ELISA (Trott, et al., 2008).
Anti-PLA2 antibody content of egg yolk and serum samples were measured by an ELISA (Trott, et al., 2008). A 96-well Nunc-Immuno Plate with MaxiSorp surface (Thermo Fischer Scientific, Waltham, Mass.) was coated overnight (100 μl per well) with PLA2 (Sigma Aldrich, St. Louis, Mo.) at a concentration of 10 μg/ml in 50 mM sodium bicarbonate. After washing, the plate was blocked (175 μl per well) for at least 1 hour with PBS containing 1% albumin from bovine serum albumin (BSA; Sigma Aldrich). Egg antibody was water-extracted from liquid egg yolk samples. Liquid egg yolk samples […] were pipetted with a positive displacement pipette (Rainin, Oakland, Calif.) and extracted overnight with 1.8 ml acidified PBS (pH 5). The extraction mixture was centrifuged at 1,500×g for 10 minutes, and the supernate was further diluted to 1:16,000 with PBS containing 1% BSA (pH 7). Serum samples were diluted 1:16,000 in PBS containing 1% BSA. In addition to the weekly egg yolk or serum samples, an ‘in-lab standard’ was applied to each ELISA plate. The standard applied to each plate consisted of a 2-fold serial dilution from 1:2,000 to 1:64,000 of water-extracted egg yolks from hens immunized against PLA2 in a previous trial. After coating, blocking, and washing the plate, duplicate samples and ‘in-lab standard’ (100 μl/well) were incubated for 1 hour on the plate followed by washing (6×). […]

[11] = Example 3: CORT 5 days, week 1 after diet administration
[12] = Example 4: CORT 6 days, weeks 4 to 10 after primary immunization

- decrease in egg production between week 1 before and week 1 after diet administration ([3]; Example 3: CORT 5 days, p=0.004): 21%
- overall difference in egg production vs control-fed hens ([3]; Example 3: CORT 5 days, p=0.57): no overall difference
- egg production, overall ([3]; Example 3: CORT 5 days, throughout the Example): 73%
- egg production [3, 11]: 50%
- egg production less than control-fed hens ([3]; Example 3: CORT 5 days, week 1 after diet administration, p=0.005): 34%
- egg production ([3]; Example 3: CORT 5 days, week 2): 62%
- egg production less than control-fed hens ([3]; Example 3: CORT 5 days, week 2, p=0.014): 29%
- overall egg production less than control-fed hens ([3]; Example 4: CORT 6 days): 35%
- egg production suppressed vs control-fed hens ([3]; Example 4: CORT 6 days, week 1 after diet administration): 50%
- egg production suppressed vs control-fed hens ([3]; Example 4: CORT 6 days, week 2 after diet administration): 100%
- egg production suppressed vs control-fed hens ([3]; Example 4: CORT 6 days, week 3 after diet administration): 80%
- overall egg production ([3]; Example 4: CORT 6 days, weeks 0 to 10): 54%
- egg production [3, 12]: 69%
- egg production lower than control-fed hens [3, 12]: 17%
- overall egg production ([3]; Example 5: CORT 9 days): 39%
- overall egg production less than control-fed hens ([3]; Example 5: CORT 9 days): 31%
- egg production suppressed vs control-fed hens ([3]; Example 5: CORT 9 days, week 4 after diet administration): 80%
- egg production ([3]; Example 5: CORT 9 days, week 5 after diet administration): 45%
- egg production lower than control-fed hens ([3]; Example 5: CORT 9 days, week 5 after diet administration, p=0.007): 50%
- egg production suppressed vs control-fed hens ([3]; Example 5: CORT 9 days, weeks 2 and 3 after diet administration): 60%
- egg production ([3]; Example 5: CORT 9 days, weeks 6 to 11 after primary immunization): 53%
- egg production lower than control-fed hens ([3]; Example 5: CORT 9 days, weeks 6 to 11 after primary immunization, p=0.001): 14%
SMILES: C[C@]12C[C@H](O)[C@H]3[C@@H](CCC4=CC(=O)CC[C@@]43C)[C@@H]1CC[C@@H]2C(=O)CO [CORT, corticosterone]
- effect on body weight gain in broilers [1]: negatively affect
- mouse T-dependent antibody response to sheep erythrocytes [2]: increased
- serum antibody titer (Log2 titer) ([4]; Example 4: CORT 30 mg/kg diet for 6 days beginning on day 1 before primary immunization): 17.65 Log2 titer
- fold higher serum antibody titer vs control hens ([4]; Example 4: CORT 6 days, p=0.008): 4.9 fold
- effect of CORT on body weight (% initial BW) vs control-fed hens ([5]; Example 3: CORT 5 days, p=0.27): no effect
- body weight higher than initial body weight [5, 11]: 11.4%
- body weight higher than initial body weight ([5]; Example 3: CORT 5 days, week 2): 10.5%
- body weight vs initial body weight ([5]; Example 3: CORT 5 days, week 5 after diet administration, p=0.57): not different from initial body weight
- body weight higher than initial body weight ([5]; Example 4: CORT 6 days, weeks 1 to 3 after diet administration): 13.3%
- plasma CORT concentrations [6]: significant increase
- egg production ([7]; after 1 week of dietary CORT 20-40 mg/kg diet): completely suppressed
- effect on egg production in laying hens ([7]; dietary CORT 30 mg/kg diet for 1 week): negatively affect
- additional time out of production after removal of CORT ([7]; dietary CORT 20-40 mg/kg diet for 1 week): 9 to 12 days
- overall effect of CORT on PBMC counts ([8]; Example 3: CORT 5 days beginning day 7 before immunization, p=0.82): no effect
- PBMC count [8, 11]: 17,800 cells/μl blood
- PBMC count as % of control-fed hens ([8]; Example 3: CORT 5 days, week 1 after diet administration, p=0.025): 49%
- PBMC count ([8]; Example 3: CORT 5 days, week 2 after diet administration): 35,400 cells/μl blood
- PBMC count ([8]; Example 4: CORT 30 mg/kg diet 6 days, week 1 after diet administration): 9,200 cells/μl blood
- PBMC count as % of control-fed hens ([8]; Example 4: CORT 6 days, week 1 after diet administration, p<0.0001): 43%
- PBMC count ([8]; Example 4: CORT 6 days, week 2): 12,900 cells/μl blood
- PBMC count as % of control-fed hens ([8]; Example 4: CORT 6 days, week 2, p=0.001): 59%
- PBMC count ([8]; Example 4: CORT 6 days, week 3, returned to control levels, p=0.57): 19,700 cells/μl blood
- number of circulating lymphocytes in chicken blood [9]: markedly decreased
- difference in antibody titer of egg yolks vs control-fed hens ([10]; Example 2: CORT 30 mg/kg diet for 2 days beginning on day 1 before primary immunization, weeks 3 to 6, p=0.24): no difference
- antibody titer of egg yolks (Log2 titer) ([10]; Example 2: CORT 30 mg/kg diet for 2 days beginning on day 1 before primary immunization, weeks 3 to 6 after primary immunization): 15.52 Log2 titer
- antibody titer of egg yolks (Log2 titer) ([10]; Example 3: CORT 30 mg/kg diet for 5 days beginning on day 7 before primary immunization, weeks 3 to 5 after primary immunization): 17.02 Log2 titer
- difference in antibody titer of egg yolks vs control-fed hens ([10]; Example 3: CORT for 5 days beginning on day 7 before primary immunization, weeks 3 to 5, p=0.96): no difference
- egg yolk antibody titer (Log2 titer) ([10]; Example 4: CORT 30 mg/kg diet for 6 days beginning on day 1 before primary immunization, weeks 3 to 5): 17.32 Log2 titer
- egg yolk antibody titer (Log2 titer) ([10]; Example 4: CORT 6 days, entire study period weeks 3 to 9): 17.37 Log2 titer
- fold higher egg yolk antibody titer vs control-fed hens ([10]; Example 4: CORT 6 days, weeks 3 to 5, p=0.006): 3.1 fold
- fold increase in antibody titer of egg yolks vs control hens ([10]; Example 4: CORT 6 days, weeks 3 to 9, p=0.032): 1.8 fold
- fold higher antibody titer of egg yolks vs control-fed hens ([10]; Example 5: CORT 9 days, weeks 3 to 10, p=0.00001): 3.0 fold
- antibody titer of egg yolks (Log2 titer) ([10]; Example 5: dietary CORT for 9 days beginning on day 1 before primary immunization, weeks 3 to 10 after primary immunization): 16.50 Log2 titer
